The values below come from patent US20140322251A1, “Peptides for Progressive Treating Multi-Focal Leukoencephalopathy and Related Conditions” (priority 2013, published 2014).

“Also recorded” adds a separate entry of the source.

For assay [1], the system named is HIV gp120 neurotoxicity. The note with it: cited from earlier work; for EC50: read-out: EC50 (pM), antagonism of HIV gp120 neurotoxicity.
Assay [2] relates to HIV (92HT596; R5/X4 isolate) entry via CXCR4, MAGI-CXC4 cells. To be noted: peptide 1 nM, 48 hrs, mean and s.e.m of triplicate cultures; cited from earlier work.
Assay [3] concerns HIV (92HT596; R5/X4 isolate) entry via CCR5, MAGI-CCR5 cells. To be noted: peptide 1 nM, 48 hrs, mean and s.e.m of triplicate cultures; cited from earlier work.
In assay [4] the test system is chemokine receptors. The note with it: two D-substitutions in peptide T; cited from earlier work.
Assay [5] concerns CCR5/CCR2 chemokine receptor system, CCL2 chemotaxis of human monocytes. Put plainly: CCL2 (MCP-1) mediated human monocyte chemotaxis (FIG. 1). The note with it: FIG. 1, triplicate determinations. In kind it is cell-based. The text has this: FIG. 1 illustrates that all-D-pentapeptide analogs of Peptide T inhibit CCL2 mediated human monocyte chemotaxis.
In order to overcome this limitation we hereby disclose an unexpected method of preserving potency. […] B. Pert, J. D. Rone, R. Nixon, M. Vance, B. Sandler, M. D. Lumpkin, D. J. Dieter, and M. R. Ruff. 1999. Peptide T blocks GP120/CCR5 chemokine receptor-mediated chemotaxis. Clin Immunol.
The FIG. 1 assay measured the peptide's ability to block CCL2 (MCP-1) chemotaxis.

The subject of assay [6] is neuropathic pain and inflammation. The note with it: animals; cited from earlier work.

As for TTNdYT [reference compound], in assay [1], the “EC50 (pM), antagonism of HIV gp120 neurotoxicity” value is “inactive” and the “activity / biopotency (gp120 neurotoxicity)” value is reported as “loss of all activity; also recorded: completely loses activity”.

ETWYS: in assay [2], the “BFU (% Control) MAGI-CXC4” value is listed as 65 +/− 5 % Control. Further, in assay [3], the “BFU (% Control) MAGI-CCR5” value is recorded as 21 +/− 7 % Control. Besides, the EC50 in assay [1] was 13 pM.

Regarding TTSYT, the “BFU (% Control) MAGI-CXC4” value in assay [2] was 35 +/− 7 % Control. For the same substance, the “BFU (% Control) MAGI-CCR5” value in assay [3] is listed as 23 +/− 5 % Control. Also, in assay [1], the 50% effective concentration (EC50) was 10 pM.

For (D-A1, D-T8)-peptide T-NH2, in assay [4], the “loss of potency versus peptide T” value is listed as “over 100,000 fold”.

Turning to TTNYT, in assay [2], the “BFU (% Control) MAGI-CXC4” value is listed as 45 +/− 7 % Control. Also, the “BFU (% Control) MAGI-CCR5” value in assay [3] was 23 +/− 4 % Control. Also, the EC50 in assay [1] was 10 pM.

In the case of NTSYG, the “BFU (% Control) MAGI-CXC4” value in assay [2] is reported as 60 +/− 8| % Control. The EC50 in assay [1] was 10 pM.

As for TTSFT [reference compound], in assay [1], the EC50 is 100000 pM.

With SSTYR, in assay [1], the EC50 was 1 pM.

Take TDNYT [reference compound]: the EC50 in assay [1] is 3000 pM.

STNYT: the EC50 in assay [1] was 3 pM.

Consider TENYT [reference compound], for which, in assay [1], the “EC50 (pM), antagonism of HIV gp120 neurotoxicity” value is “inactive”.

For the substance (all-D)-TTNYT, the “block of CCL2 (MCP-1) chemotaxis / CCR5/CCR2 chemokine receptor system” value in assay [5] is reported as “blocked”. In addition, the oral efficacy result in assay [6] is “prevent and reverse neuropathic pain and block inflammation”.

For orientation: EC50 means the midpoint of the concentration-response curve.
